Assay results taken from PubChem BioAssay AID504686 (National Center for Advancing Translational Sciences (NCATS), 2011).

Tested on: Caco-2 monolayer A->B permeability, LC-MS/MS, 90 min
Test: Inhibitors of Human alpha-Glucosidase: Caco-2 Cell Permeability Profiling
Conditions: hits give high values
From the text: Alpha-glucosidase is responsible for the hydrolysis of terminal, non-reducing 1,4-linked alpha-D-glucose residues, which releases alpha-D-glucose. It is a lysosomal hydrolase that is required for the degradation of a small percentage (1-3%) of cellular glycogen in humans. Deficiency of this enzyme results in glycogen-storage disease type II (GSDII), also referred to as Pompe disease, an autosomal recessive disorder. Structurally normal glycogen is accumulated in the lysosomes and cytoplasm in affected patients, primarily in muscle tissues. Excessive glycogen storage within lysosomes may interrupt normal functioning of other organelles and leads to cellular injury. In turn, this leads to enlargement and dysfunction of the entire organ involved (eg: cardiomyopathy and muscle weakness). This bioassays provides profiling data on Caco-2 cell permeability of leads compounds developed for the alpha-Glucosidase project. This in vitro model is often predictive of in vivo absorption of the compound across the intestinal lining by using a Caco2-cell line and measuring the compound's rate of transport […]. NIH Chemical Genomics Center [NCGC] NIH Molecular Libraries Probe Production Centers Network [MLPCN] […]
1. […] The T0, LY and T90, LY plates are read by FlexStation 3 at excitation of 485 nm and emission of 535 nm to determine LY permeability. […]

Papp A->B: 21.3 10^-6 cm/s
SMILES: CC(=O)c1ccc(N2CCN(S(=O)(=O)c3ccc4c(c3)CC(=O)N4)CC2)cc1
